# In PubChem BioAssay (NCI):
#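 Exposure lasted 48 hours, with cells grown in 96-well plates and compounds tested at five concentrations. TGI marks complete inhibition of growth.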
# Legend:
# Test in all cases: NCI-60 cell line screen, 48 h
# MCF7 breast = tested on: MCF7 breast
# UACC-257 melanoma = tested on: UACC-257 melanoma
# NCI-H226 lung = tested on: NCI-H226 lung
# KM12 colon = tested on: KM12 colon
# A498 renal = tested on: A498 renal
# TK-10 renal = tested on: TK-10 renal
# SN12C renal = tested on: SN12C renal
# K-562 leukemia = tested on: K-562 leukemia
# SF-295 CNS = tested on: SF-295 CNS
# T-47D breast = tested on: T-47D breast
# NCI-H460 lung = tested on: NCI-H460 lung
# HS 578T breast = tested on: HS 578T breast
# SNB-75 CNS = tested on: SNB-75 CNS
# HCC-2998 colon = tested on: HCC-2998 colon
# BT-549 breast = tested on: BT-549 breast
# SW-620 colon = tested on: SW-620 colon
# SF-539 CNS = tested on: SF-539 CNS
# MALME-3M melanoma = tested on: MALME-3M melanoma
# CCRF-CEM leukemia = tested on: CCRF-CEM leukemia
# A549 NSCLC = tested on: A549 NSCLC
SMILES,TGI (MCF7 breast),TGI (UACC-257 melanoma),TGI (NCI-H226 lung),TGI (KM12 colon),TGI (A498 renal),TGI (TK-10 renal),TGI (SN12C renal),TGI (K-562 leukemia),TGI (SF-295 CNS),TGI (T-47D breast),TGI (NCI-H460 lung),TGI (HS 578T breast),TGI (SNB-75 CNS),TGI (HCC-2998 colon),TGI (BT-549 breast),TGI (SW-620 colon),TGI (SF-539 CNS),TGI (MALME-3M melanoma),TGI (CCRF-CEM leukemia),TGI (A549 NSCLC)
CCC1NC(=O)C1NC(=O)OC (stereo not drawn),> 100 µM,> 100 µM,> 100 µM,> 100 µM,> 100 µM,> 100 µM,> 100 µM,> 100 µM,> 100 µM,> 100 µM,> 100 µM,> 100 µM,> 100 µM,> 100 µM,> 100 µM,> 100 µM,> 100 µM,> 100 µM,> 100 µM,
NC(=O)NNc1nc2ccccc2c(=O)n1NC(=O)C(=O)Nc1ccc(Cl)cc1Cl,> 100 µM,> 100 µM,> 100 µM,> 100 µM,> 100 µM,> 100 µM,> 100 µM,> 100 µM,> 100 µM,> 100 µM,> 100 µM,> 100 µM,> 100 µM,> 100 µM,> 100 µM,> 100 µM,> 100 µM,> 100 µM,> 100 µM,> 100 µM
CCCC1(NC(=O)C(F)(F)F)CC(OC)OC2COC(c3ccccc3)OC21 (stereo not drawn),> 100 µM,> 100 µM,> 100 µM,,> 100 µM,,> 100 µM,> 100 µM,> 100 µM,> 100 µM,> 100 µM,> 100 µM,> 100 µM,> 100 µM,> 100 µM,> 100 µM,> 100 µM,> 100 µM,> 100 µM,> 100 µM
C/C(=N/NC(=S)Nc1ccc([N+](=O)[O-])cc1)c1cccc(/C(C)=N\NC(=S)Nc2ccc([N+](=O)[O-])cc2)n1,3.86 µM,13.1 µM,1.84 µM,> 35.7 µM,9.74 µM,15.7 µM,14.4 µM,> 39.4 µM,8.33 µM,24.2 µM,9.11 µM,> 81.7 µM,> 44.3 µM,21.5 µM,2.36 µM,16.1 µM,2.28 µM,9.13 µM,> 55.8 µM,11.4 µM
O=C(/C=C/c1ccccc1)CCN1CCN(CCC(=O)/C=C/c2ccccc2)CC1,20.7 µM,24 µM,64.4 µM,17 µM,33.3 µM,30 µM,21.7 µM,> 100 µM,31.2 µM,31.2 µM,31 µM,37.2 µM,29.7 µM,30.4 µM,28.4 µM,17.4 µM,28.8 µM,30.9 µM,28.1 µM,> 100 µM
COc1ccc(OCc2nc3cc(C(F)(F)F)ccc3nc2-c2ccccc2)cc1,> 100 µM,> 100 µM,> 100 µM,> 100 µM,> 100 µM,> 100 µM,> 100 µM,> 100 µM,> 100 µM,> 100 µM,> 100 µM,> 100 µM,> 100 µM,> 100 µM,> 100 µM,> 100 µM,> 100 µM,> 100 µM,> 100 µM,> 100 µM
O=CC(=C(I)I)c1ccccc1,16.2 µM,8.05 µM,32 µM,12.7 µM,40.7 µM,5.83 µM,6.39 µM,1.34 µM,31.2 µM,9.18 µM,40.9 µM,12.6 µM,9.97 µM,26.4 µM,14.1 µM,2.17 µM,5.17 µM,4.4 µM,0.65 µM,41.8 µM
COc1ccc2c(C)cc(N/N=C(\C)C=O)nc2c1,26 µM,33.9 µM,24.7 µM,25.8 µM,27.9 µM,30.1 µM,26.8 µM,5.05 µM,28.8 µM,41.3 µM,24.9 µM,43.3 µM,29.8 µM,24.5 µM,29.3 µM,27.5 µM,20.3 µM,28 µM,4 µM,38.6 µM
CC(C)(Br)C(Br)CCC(C)(Br)C(Br)CO (stereo not drawn),> 10 µM,> 10 µM,> 10 µM,,> 10 µM,,> 10 µM,> 10 µM,> 10 µM,> 10 µM,,> 10 µM,> 10 µM,> 10 µM,> 10 µM,> 10 µM,> 10 µM,> 10 µM,> 10 µM,> 10 µM
COc1ccc2oc(=N)c(C(=O)NCc3ccccc3)cc2c1,69.1 µM,> 100 µM,85 µM,29.6 µM,35.1 µM,> 100 µM,> 100 µM,86.8 µM,65 µM,44.6 µM,> 100 µM,42.7 µM,35 µM,,45.4 µM,55.6 µM,56.6 µM,39.3 µM,> 100 µM,> 100 µM
C=CC/C=C/Cc1csc(C(C)(C)C(O)C/C=C/C(=C)CCNC(=O)OC)n1 (stereo not drawn),> 100 µM,> 100 µM,> 100 µM,> 100 µM,> 100 µM,> 100 µM,> 100 µM,> 81.5 µM,> 100 µM,> 100 µM,> 100 µM,> 100 µM,> 83.8 µM,> 100 µM,> 100 µM,> 46.4 µM,> 100 µM,> 100 µM,> 100 µM,> 100 µM
COC(=O)C1=CC2CCCC1(O)C(C(C)=O)C2 (stereo not drawn),> 100 µM,> 100 µM,> 100 µM,> 100 µM,> 100 µM,> 100 µM,> 100 µM,> 100 µM,> 100 µM,> 100 µM,> 100 µM,> 100 µM,> 31.6 µM,> 100 µM,> 100 µM,> 100 µM,26.6 µM,> 100 µM,> 68.3 µM,> 100 µM
